The text below walks through data of a melting point compilation (Tetko et al.; mined from patent text by program, amines drawn as free bases though some values may be those of a salt).

In turn, `O=c1oc(-c2cccc(C(F)(F)F)c2)nc2cccc(Cl)c12` yielded a melting point of 116 to 120 °C. On to `CS(=O)(=O)Nc1ccc(OCC2CCN(c3cc([N+](=O)[O-])ccn3)CC2)cc1`, for which the melting point amounted to 184 °C. The figure for `Cc1nc(-c2cn(Cc3ccccc3)nn2)sc1C(=O)NCc1ccccc1` is 108 to 109 °C. The figure for `O=C(CCCl)c1ccc2c3c1CCCC3C(=O)N2` (centres undefined) is 175 to 178 °C; for `CC(CS)C(=O)NC(C(=O)O)C(C)C` (centres undefined) it is 150 to 157 °C. Then `N#CC(=Cc1ccc(O)c(O)c1)C(=O)Nc1ccccc1`, with 258 °C; and `CCCc1nccn1-c1nc(Cl)nc2nc[nH]c12`, with 224 to 225 °C.

In turn, `Fc1ccccc1Cn1cnc2c(NC3CC3)nc(C(F)(F)F)nc21` registered a melting point of 118 to 119 °C. The figure for `CC(C)(C)NCC(O)COc1ccc(F)cc1-c1ccc(=S)[nH]n1` (centres undefined) is 170 to 173 °C; for `CCCCCCCN(CC1(c2ccccc2)CCCC1)C(=O)Nc1c(C(C)C)cccc1C(C)C` it is 95 to 97 °C; for `CCOC(=O)CCn1c(CC(=O)OCC)nc2c(N3CCCCC3)cccc21` it is 82 to 85 °C. The figure for `Nc1cc(-n2cc(C(=O)O)c(=O)c3cc(F)c(NC4COC4)c(Cl)c32)c(F)cc1F` is 240 to 244 °C; for `Fc1cccc2nc(S)sc12` it is 193 °C. The figure for `Cc1ccc(Cl)c(C(=O)c2ccc(Cl)cc2)c1` is 85 to 90 °C; for `CCc1c(-c2ccncc2)[nH]c2ccc(C3=NNC(=O)CC3)cc12` it is greater than 300 °C. Regarding `CCOC(=O)C(=CNc1ccc(OCC)nc1)C(=O)OCC`, the melting point fell in the range of 68 to 71 °C. Then `COC(=O)CC(C)(C)C(=O)c1ccc2c(c1)CC(N1C(=O)c3ccccc3C1=O)C2` (centres undefined), with 115 to 117 °C. Then `COc1ccc([N+](=O)[O-])c(Nc2ccc3cn[nH]c3c2)n1`, with 261 to 264 °C; and `Cc1ccc(S(=O)(=O)C=CC#N)cc1NS(=O)(=O)c1ccc2ccccc2c1`, with 214 to 216 °C. Then `COc1cccc2c(=O)c3cccc(OC)c3sc12`, with 248 to 250 °C; and `COC1=CC(=O)C(OC)=C(CCCCCC2=C(OC)C(=O)C(Cl)=C(OC)C2=O)C1=O`, with 44.8 to 46 °C.

Consider `CSc1nc(OCC(F)(F)F)nc2sc(C)cc12`, for which the melting point was determined as 97 °C. Then `CSc1nn2c(N)cc(C(C)C)nc2c1S(=O)(=O)c1ccccc1`, with 210 to 211 °C. Then `O=[N+]([O-])c1cc(C(F)(F)F)cc2nc(C(F)(F)F)[nH]c12`, with 95 to 97 °C; and `CC(C)(C)[Si](C)(C)Oc1ccc(C(=O)O)cc1C12CC3CC(CC(C3)C1)C2`, with 250 to 252 °C; and `CNC(=O)Nc1c(C)nn(-c2cc(OC(C)C)c(Cl)cc2F)c1C`, with 184 to 185 °C. The figure for `Cc1oc(-c2ccccc2)nc1CCOc1ccc(C=O)c2ccccc12` is 130 to 133 °C; for `CCOC(=O)C1=Cc2cc(Cl)cc(CO[N+](=O)[O-])c2OC1C(F)(F)F` (centres undefined) it is 53 °C. `Cc1nn(C)c(Cl)c1C(=O)Nc1ccccc1` yielded a melting point of 157 to 159 °C. The figure for `O=C(CS)NCC(=O)NCCS` is 128 to 130 °C. Regarding `CCC(C#N)c1cccc(C(=O)c2cc3cc(C(=O)OC)sc3s2)c1` (centres undefined), the melting point came out at 130 °C. Consider `NS(=O)(=O)c1cccc2c1COC2`, for which the melting point lay within 153 to 158 °C. Then `C/C(=N\OCCN1CCOCC1)[C@H]1CC[C@H]2[C@@H]3CCC4=CC(=O)CC[C@]4(C)[C@H]3CC[C@]12C`, with 107 to 108 °C; and `CC1(C)Oc2ccc(-c3c(N)c(=O)c3=O)cc2[C@@H](N2Cc3ccccc3C2=O)[C@@H]1O` (relative stereo), with greater than 250 °C; and `CC1(C)CCC(C)(C)c2cc(C#Cc3ccc(C(=O)O)cc3)ccc21`, with 252 to 256 °C. Then `COC(=O)c1ccc(OCCCO/N=C/c2cn(Cc3ccccc3)c3ccccc23)cc1O`, with 100 to 102 °C; and `CCCc1c(OCCCCCCc2cc(C)c(O)c(O)c2C)ccc(C(=O)O)c1O`, with 170 to 171 °C.

Regarding `COc1cc2c(cc1OC(C)=O)C1Cc3ccc(OC)c(OC(C)=O)c3CN1CC2` (centres undefined), the melting point fell in the range of 212 to 214 °C. `CCCCCCCCCCCCC#CC#CCCCCCCCC(C(N)=O)C(C)c1ccccc1` (centres undefined) had a melting point of 65.5 to 66.5 °C. Then `CC(C)C1(n2cccn2)CN(C(=O)O)N=C1c1ccc(F)cc1` (centres undefined), with 125 °C; and `Cc1c(C=C2CCc3cc4ccccc4n3C2=O)ncn1C(c1ccccc1)(c1ccccc1)c1ccccc1`, with 214 to 217 °C; and `CC1(C)Oc2ccc(C#N)cc2[C@@H](N2CCCCC2=O)[C@@H]1O` (relative stereo), with 155 °C.

In the case of `COc1ccc2c(c1)CCC(N(C)c1ccc(O)cc1)C2` (centres undefined), the melting point lay in the range of 79 to 82 °C. For `O=c1c(-c2ccccc2)c(Cn2cnc3c(Cl)ncnc32)oc2ccc(Br)cc12`, the melting point is 234 to 236 °C. The figure for `CC1(C)CC(=O)c2c(C3CCCCC3)sc(-c3nccs3)c2C1` is 101 to 103 °C; for `O=P(O)(O)C1=CCCCC1` it is 128 °C. The figure for `N#Cc1c(Br)[nH]c(Br)c1C(F)(F)F` is 198 to 200 °C. Then `CCOC(=O)c1nc2sc(C(=O)OCC)c(C)c2c(=O)[nH]1`, with 237 to 238 °C; and `CCOC(=O)c1cnc(-c2ccccc2OCC)[nH]c1=O`, with 144 to 149 °C. Take `CSc1sc(C(=O)N(C)C)c2c1C(=O)CC(C)(C)C2`: the melting point lay within 135 to 136 °C. The figure for `CC[C@H]1c2ccc(C#N)n2-c2cc(F)c(F)cc2N1S(=O)(=O)c1ccc(OS(N)(=O)=O)cc1` is 196 to 201 °C; for `CC(OCn1cc(Cl)cnc1=O)c1ccccc1` (centres undefined) it is 139 °C. On to `Cc1cccc(-c2[nH]c(C(C)C)nc2-c2cccc(-c3ccccn3)c2)n1`, for which the melting point was in the range of 97 to 100 °C. Then `Nc1ccc(C=CC=CC=CC=Cc2ccc(N)cc2)cc1`, with 262 to 264 °C; and `CCCCOc1ccc(-c2nc(CCOS(=O)(=O)c3ccc(C)cc3)c(C)o2)cc1`, with 84.9 °C; and `CS(=O)(=O)Nc1ccc(OCCN2CCN(C(=O)c3ccc(NS(C)(=O)=O)cc3)CC2)cc1`, with 170 to 175 °C.

Regarding `COCC(=O)Nc1cccc(C2(C3CCN(C(=O)c4ccc(C(=O)OC)cc4)CC3)N=C(N)N(C)C2=O)c1` (centres undefined), the melting point was 161 to 163 °C.

As to `COC(=O)Cc1cscc1C(=O)O`, the melting point fell in the range of 121 to 122 °C. The figure for `Nc1c(Cl)ccc(Br)c1F` is 61 to 62 °C.

As for `CC(=O)Nc1ccc2c(c1)cc(C(=O)c1ccc(C)cc1)n2C`, the melting point was 211 to 213 °C.

With `O=C1NC(=O)N(CCc2ccccc2)C1O` (centres undefined), the melting point fell in the range of 168 to 169 °C. Then `COc1cc(OC)c2c(=O)[nH]c(-c3ccc(OCCNC(C)C)c(-c4cccc(S(C)(=O)=O)c4)n3)nc2c1`, with 222 to 223 °C. Then `CC12CCC3C(CCC4C(=[N+]=[N-])C(=O)CCC43C)C1CCC2O` (centres undefined), with 171 °C; and `CC(=O)OC1CSC(Oc2ccc(-c3c(C)noc3C)nc2)C(OC(C)=O)C1OC(C)=O` (centres undefined), with 172 °C. The figure for `O=C1O[C@@H](CNC(=O)C(F)(F)F)CN1c1ccc2c(c1)CCCc1cnoc1-2` is 203 to 205 °C; for `Cc1ccc2c(Cl)c(Cl)ccc2n1` it is 84 to 85 °C. On to `COc1ccc2c(c1)Sc1ccc(F)cc1C(O)C2` (centres undefined), for which the melting point lay in the range of 74 to 76 °C. Then `OCC1CCC(N2CCC(=C3c4ccccc4Sc4ccc(C(F)(F)F)cc43)CC2)CC1` (centres undefined), with 193 to 197 °C; and `COc1c(Cl)ccc(-c2nc(C(=O)Cl)cc(Cl)c2Cl)c1F`, with 134 to 136 °C; and `COc1cccc2c1nnn2C1CCCCC1`, with 118 to 120 °C. The figure for `Cn1cccc1CCNC(=O)C(C#N)C(=O)c1nn(-c2ccccc2)c2c1Cc1ccccc1-2` (centres undefined) is 288 to 291 °C; for `CCNC(=O)c1c(Cl)cccc1OC(C)(C)C` it is 126 to 127 °C. Then `Nc1sc2c(c1C(=O)c1ccsc1)CCC(Cc1ccccc1)C2` (centres undefined), with 57 to 58 °C; and `CCN1CCc2ccc(Nc3ncc(C(F)(F)F)c(Nc4ccccc4C(=O)NC)n3)cc2CC1`, with 226 °C.

In the case of `COc1cncnc1N1CCN(C(=O)OC(C)(C)C)CC1C` (centres undefined), the melting point is 70 to 72 °C. `Cc1cc(N2C(=O)N(CCCCCCCCCSCCCC(F)(F)C(F)(F)F)C(C)(C)C2=O)ccc1NS(N)(=O)=O` showed a melting point of 102 to 104 °C.

Turning to `COC(=O)[C@@H]1[C@H](NCc2cc(OC(F)(F)F)ccc2OC)[C@H](c2ccccc2)N[C@@H]1C` (relative stereo), the melting point was 81 to 82 °C. The figure for `CCOc1ccc2[nH]c(=O)n(C34CC5CC(CC(C5)C3)C4)c2c1` is 146 °C; for `COC(=O)C[C@H]1C[C@@H](C=Cc2ccccc2)OC(C)(C)O1` (relative stereo) it is 84 to 86.5 °C.

Molecule `COC(=O)C1CCC2C3CCC4CC5OC5CC4(C)C3C(NC(=O)OCC(Cl)(Cl)Cl)CC12C` (centres undefined) showed a melting point of 153 to 155 °C. Then `COc1ccc(-c2c(/C=C\C(=O)O)cnn2C)cc1`, with 205 to 206 °C. Then `C#CCN(C(CCn1c(=O)[nH]c2ccccc2c1=O)C(=O)O)S(=O)(=O)c1ccc(Oc2ccccc2)cc1` (centres undefined), with 194 to 195 °C; and `CCCCc1nn2cccc(C(=O)OC)c2c1Cc1ccc(-c2ccccc2C#N)cc1`, with 92 to 95 °C; and `c1ccc2nc3c(nc2c1)OCC1CCCN31` (single isomer, unassigned; (+)), with 121 to 123 °C. Then `NC(=O)C(N)c1c(Cl)cccc1Cl` (centres undefined), with 166 °C; and `CN1CC(CCN2CCN(c3ccccc3)CC2)c2nc3ccccc3n2C1=O` (centres undefined), with 144 to 146 °C; and `CC1(C)Oc2c(cc(Cl)c3oc(C(=O)O)cc(=O)c23)-c2ccc(S(=O)(=O)O)cc21`, with 257 to 259 °C. In the case of `O=C(O)CNc1ccco1`, the melting point fell in the range of 195 to 199 °C. For `O=[N+]([O-])c1ccc(-n2nnnc2Cl)cc1`, the melting point was 96.5 °C.
